Laboratory results: patent publication US20250345426A1, “METHODS FOR MAKING AND USING THERAPEUTIC CELLS” (THE REGENTS OF THE UNIVERSITY OF CALIFORNIA, priority 2022, published 2025)

Legend:
[1] = test system: Raji tumor xenografts; test: Raji xenograft in NSG mice treated with inhibitor-preconditioned rituximab CAR-T cells; format: in vivo; conditions: for prolonged median survival compared to vehicle (DMSO)-treated rituximab CAR-T cells: two doses of preconditioned rituximab CAR-T cells
Method: FIG. 2A-C. […] (A) Tumor signal (in photons/sec/cm^2/sr) in individual animals as quantified by bioluminescence imaging. […] Statistical significance was determined by Mann-Whitney U test with Holm-Sidak correction for multiple comparisons. * p<0.05, n.s. not statistically significant. (B) Kaplan-Meier survival curve (top) and table of median survival period in days (bottom). (C) Frequency of human CD45+EGFRt+ cell in peripheral blood collected from mice on day 8 after first dose of T-cell infusion. Statistical significance was determined by two-tailed Student's t test with Sidak correction for multiple comparisons. * p<0.05, ** p<0.01.
In vivo studies. Six- to eight-week-old NOD/SCID/IL-2Rγ^null (NSG) mice were obtained from UCLA Department of Radiation and Oncology. The protocol was approved by UCLA Institutional Animal Care and Used Committee. […] Details of the dose and timing of tumor injection, T-cell injection, and tumor re-challenge are indicated in the text and figures. Tumor progression/regression was monitored with an IVIS Illumina III LT Imaging System (PerkinElmer). Blood samples were harvested via retro-orbital bleeding 3 days post T-cell injection and every 10-13 days thereafter. Mice were euthanized at the humane endpoint. Bone marrow, spleen and liver were collected after euthanasia. Tissues were ground and passed through a 100-μm filter followed by red-blood-cell lysis prior to flow-cytometry analysis.

[2] = test system: rituximab CAR-T cells; test: Antigen-independent activation and exhaustion marker expression by flow cytometry, rituximab CAR-T cells; format: cell-based, human; conditions: 5 days inhibitor culture, no antigen, vs vehicle (DMSO), CAL-101 1 μM, AZD5363 1 μM
Description: FIG. 1A-G. Pharmacological inhibition of PI3K/AKT pathway modulates antigen-independent CAR-T cell activation. (A) Table of pharmacological inhibitors used during ex vivo expansion of rituximab CAR-T cells (left). Simplified schematic of the PI3K/AKT signaling axis where black arrows represent activation (right). (B) Activation marker expression by CAR^+ T cells in the absence of antigen stimulation after 5 days of pharmacological modulation. Data bars indicate the means of technical triplicates±1 S.D. The bars in FIG. 1B represent data from, untreated, vehicle, CAL-101, AZD5363, Rapamycin, MYCi975, and Betulin, respectively, from left to right. (C) TNF-α production CAR^+ T cells in the absence of antigen stimulation as quantified by intracellular flow cytometry. Data bars indicate the means of technical triplicates±1 S.D. The bars in FIG. 1B and FIG. 1C represent data from, untreated, vehicle, CAL-101, AZD5363, Rapamycin, MYCi975, and Betulin, respectively, from left to right. (D) Proliferation of CAR^+ T cells stained with CellTrace Violet (CTV) dye was assayed after a 4-day culture in the absence of target cells or exogenous cytokines. Data shown in the histogram correspond to one of technical triplicates shown in the bar graph. The bars FIG. 1D represent data from, EGFRt, untreated, vehicle, CAL-101, AZD5363, Rapamycin, MYCi975, and Betulin, respectively, from left to right. (E) % distribution of T-cell subtypes in CAR^+ T cells after 5 days of pharmacological modulation. Data bars indicate the means of technical triplicates±1 S.D. (F) Rituximab CAR-T cell fold expansion after 6 days of inhibitor culture was tracked. T-cell fold expansion was normalized to the untreated control with each data point representing biological replicates collected from healthy donors. The bars FIG. 1F represent data from, EGFRt, vehicle, CAL-101, AZD5363, Rapamycin, MYCi975, and Betulin, respectively, from left to right. (G) A 24-hr lysis assay of CD20 CAR-T cells against Raji target cells at three effector-to-target (E:T) ratios. Data bars indicate the means of technical triplicates±1 S.D. Percent lysis was normalized to cell counts in target-only wells. […] In (B)-(F), results are representative two independent experiments using cells from of two heathy donors. Statistical significance in panels B, C, and D was determined by two-tailed Student's t test with Sidak correction for multiple comparisons. * p<0.05, ** p<0.01, *** p<0.001, n.s. not statistically significant. […]
(§1) Antibody staining for flow-cytometry analysis. EGFRt expression was measured with biotinylated cetuximab (Eli Lilly; biotinylated in-house), followed by PE-conjugated streptavidin (Jackson ImmunoResearch #016-110-084). CAR expression was quantified by surface epitope staining using anti-Fc (Alexa Fluor 488, Jackson ImmunoResearch #709-546-098). Antigen-independent activation-marker expression of CAR-T cells was evaluated by antibody staining for CD137 (PE/Cy7, clone 4B4-1, BioLegend #309818), and PD-1 (FITC, clone EH12.2H7, BioLegend #329904) on Days 18 (i.e., 18 days after Dynabead addition and 11 days after Dynabead removal) and after 5-6 days of inhibitor culture (FIG. 1, FIG. 3). T-cell subtype of CAR-T cells was evaluated by antibody staining for CD45RO (VioBlue®, clone REA611, Miltenyi #130-119-620) and CD62L (APC, clone DREG56, Invitrogen #17-0629-42) after 5-6 days of inhibitor culture (FIG. 1, FIG. 3). […]

[3] = test system: rituximab CAR-T cells; test: TNF-α production without antigen stimulation, intracellular flow cytometry, rituximab CAR-T cells; format: cell-based, human; conditions: vs vehicle (DMSO)
Description: (§2) FIG. 1A-G. Pharmacological inhibition of PI3K/AKT pathway modulates antigen-independent CAR-T cell activation. (A) Table of pharmacological inhibitors used during ex vivo expansion of rituximab CAR-T cells (left). Simplified schematic of the PI3K/AKT signaling axis where black arrows represent activation (right). (B) Activation marker expression by CAR^+ T cells in the absence of antigen stimulation after 5 days of pharmacological modulation. Data bars indicate the means of technical triplicates±1 S.D. The bars in FIG. 1B represent data from, untreated, vehicle, CAL-101, AZD5363, Rapamycin, MYCi975, and Betulin, respectively, from left to right. (C) TNF-α production CAR^+ T cells in the absence of antigen stimulation as quantified by intracellular flow cytometry. Data bars indicate the means of technical triplicates±1 S.D. The bars in FIG. 1B and FIG. 1C represent data from, untreated, vehicle, CAL-101, AZD5363, Rapamycin, MYCi975, and Betulin, respectively, from left to right. (D) Proliferation of CAR^+ T cells stained with CellTrace Violet (CTV) dye was assayed after a 4-day culture in the absence of target cells or exogenous cytokines. […] Statistical significance in panels B, C, and D was determined by two-tailed Student's t test with Sidak correction for multiple comparisons. * p<0.05, ** p<0.01, *** p<0.001, n.s. not statistically significant. […]

[4] = test system: rituximab CAR-T cells; test: CellTrace Violet proliferation assay without target cells or exogenous cytokines, rituximab CAR-T cells; format: cell-based, human; conditions: 4-day culture, CTV dye, vs vehicle (DMSO)
Method: (D) Proliferation of CAR^+ T cells stained with CellTrace Violet (CTV) dye was assayed after a 4-day culture in the absence of target cells or exogenous cytokines. Data shown in the histogram correspond to one of technical triplicates shown in the bar graph. The bars FIG. 1D represent data from, EGFRt, untreated, vehicle, CAL-101, AZD5363, Rapamycin, MYCi975, and Betulin, respectively, from left to right. […] In (B)-(F), results are representative two independent experiments using cells from of two heathy donors. Statistical significance in panels B, C, and D was determined by two-tailed Student's t test with Sidak correction for multiple comparisons. * p<0.05, ** p<0.01, *** p<0.001, n.s. not statistically significant.
For inhibitor analysis, starting on Day 8, T cells were cultured in T-cell media with cytokine support in the presence of 1 μM PI3K8 isoform inhibitor (CAL-101, Apex Biotechnology #A300520)), 1 μM AKT inhibitor (AZD5363, Selleckchem #S8019), 100 nM mTORC1 inhibitor (Rapamycin, LC Laboratories #R-5000), 2 μM c-Myc inhibitor (MYCi975, MedChemExpress #HY-129601), SREBP inhibitor (Betulin, MilliporeSigma #92648), or DMSO as a vehicle control. Each inhibitor molecule was solubilized in DMSO.
Proliferation assay. […] Cultures were passaged as needed, and CTV dilution was analyzed on a MACSQuant VYB flow cytometer after a 4-day co-incubation.

[5] = test system: rituximab CAR-T cells; test: T-cell subtype distribution (CD45RO/CD62L staining), rituximab CAR-T cells; format: cell-based, human; conditions: 5 days of pharmacological modulation, vs vehicle
Description: as §2
as §1, with “3).” for “3). T-cell subtype of CAR-T cells was evaluated by antibody staining for CD45RO (VioBlue®, clone REA611, Miltenyi #130-119-620) and CD62L (APC, clone DREG56, Invitrogen #17-0629-42) after 5-6 days of inhibitor culture (FIG. 1, FIG. 3).”

[6] = test system: Raji target cells; test: 24-hr lysis assay of inhibitor-treated rituximab CD20 CAR-T cells against Raji; format: cell-based; conditions: three E:T ratios, vs vehicle-treated
Description: FIG. 1A-G. Pharmacological inhibition of PI3K/AKT pathway modulates antigen-independent CAR-T cell activation. (A) Table of pharmacological inhibitors used during ex vivo expansion of rituximab CAR-T cells (left). Simplified schematic of the PI3K/AKT signaling axis where black arrows represent activation (right). (B) Activation marker expression by CAR^+ T cells in the absence of antigen stimulation after 5 days of pharmacological modulation. Data bars indicate the means of technical triplicates±1 S.D. The bars in FIG. 1B represent data from, untreated, vehicle, CAL-101, AZD5363, Rapamycin, MYCi975, and Betulin, respectively, from left to right. (C) TNF-α production CAR^+ T cells in the absence of antigen stimulation as quantified by intracellular flow cytometry. Data bars indicate the means of technical triplicates±1 S.D. The bars in FIG. 1B and FIG. 1C represent data from, untreated, vehicle, CAL-101, AZD5363, Rapamycin, MYCi975, and Betulin, respectively, from left to right. (D) Proliferation of CAR^+ T cells stained with CellTrace Violet (CTV) dye was assayed after a 4-day culture in the absence of target cells or exogenous cytokines. Data shown in the histogram correspond to one of technical triplicates shown in the bar graph. The bars FIG. 1D represent data from, EGFRt, untreated, vehicle, CAL-101, AZD5363, Rapamycin, MYCi975, and Betulin, respectively, from left to right. (E) % distribution of T-cell subtypes in CAR^+ T cells after 5 days of pharmacological modulation. Data bars indicate the means of technical triplicates±1 S.D. (F) Rituximab CAR-T cell fold expansion after 6 days of inhibitor culture was tracked. […] Statistical significance in panels B, C, and D was determined by two-tailed Student's t test with Sidak correction for multiple comparisons. * p<0.05, ** p<0.01, *** p<0.001, n.s. not statistically significant.
Cytotoxicity assay with Raji cells. […] Remaining target cells were quantified by MACSQuant VYB flow cytometer 24-hr post co-incubation.

Compound | prolonged median survival compared to vehicle (DMSO)-treated rituximab CAR-T cells ([1]; NSG mice, Raji i.v.) | antigen-independent expression of activation and exhaustion markers [2] | TNF-α production in the absence of antigen stimulation [3] | antigen-independent cell division [4] | fraction of naïve and stem-cell memory T (Tn/scm) cells / T-cell differentiation [5] | lysis of Raji tumor cells [6] | tumor outgrowth / tumor progression ([1]; NSG mice, Raji i.v., preconditioned rituximab CAR-T cells, bioluminescence, vs vehicle control) | in vivo expansion of CAR-T cells ([1]; human CD45+EGFRt+ cells in peripheral blood, day 8 after first T-cell dose, vs control)
CC[C@H](Nc1ncnc2[nH]cnc12)c1nc2cccc(F)c2c(=O)n1-c1ccccc1 [CAL-101] | 1.5 folds |  |  |  |  |  |  | 
CO[C@H]1C[C@@H]2CC[C@@H](C)[C@@](O)(O2)C(=O)C(=O)N2CCCC[C@H]2C(=O)O[C@H]([C@H](C)C[C@@H]2CC[C@@H](O)[C@H](OC)C2)CC(=O)[C@H](C)/C=C(\C)[C@@H](O)[C@@H](OC)C(=O)[C@H](C)C[C@H](C)/C=C/C=C/C=C/1C [rapamycin, Rapamycin] | 1.8 folds |  |  |  |  |  |  | 
AZD5363 | 1.6 folds | significantly reduced | significantly reduced | significantly reduced | preserved a greater fraction | clustered together | delayed tumor outgrowth | significantly increased
